Test results: ChEMBL document CHEMBL3112408, “1,2,3-triazole-, arylamino- and thio-substituted 1,4-naphthoquinones: potent antitumor activity, electrochemical aspects, and bioisosteric replacement of C-ring-modified lapachones” (Bioorg Med Chem, 2014)

Assays:
[1] = tested on: HCT-116; test: Cytotoxicity against human HCT116 cells assessed as cell viability after 72 hrs by MTT assay; format: functional, cell-based; conditions: HCT-116, 72 h
[2] = tested on: OVCAR-8; test: Cytotoxicity against human OVCAR8 cells assessed as cell viability after 72 hrs by MTT assay; format: functional, cell-based; conditions: OVCAR-8, 72 h
[3] = tested on: PC-3; test: Cytotoxicity against human PC3 cells assessed as cell viability after 72 hrs by MTT assay; format: functional, cell-based; conditions: PC-3, 72 h
[4] = tested on: HL-60; test: Cytotoxicity against human HL60 cells assessed as cell viability after 72 hrs by MTT assay; format: functional, cell-based; conditions: HL-60, 72 h
[5] = tested on: MCF7; test: Cytotoxicity against human MCF7 cells assessed as cell viability after 72 hrs by MTT assay; format: functional, cell-based; conditions: MCF7, 72 h
[6] = Cytotoxicity against human Hs578T cells assessed as cell viability after 72 hrs by MTT assay; format: functional, cell-based; conditions: Hs-578T
[7] = tested on: MX1; test: Cytotoxicity against human MX1 cells assessed as cell viability after 72 hrs by MTT assay; format: functional, cell-based; conditions: MX1, 72 h
[8] = tested on: V79; test: Cytotoxicity against chinese hamster V79 cells assessed as cell viability after 72 hrs by MTT assay; format: cell-based; conditions: Cricetulus griseus, V79, 72 h
[9] = Cytotoxicity against human HCT8 cells assessed as cell viability after 72 hrs by MTT assay; format: functional, cell-based; conditions: HCT-8, 72 h
[10] = tested on: L929; test: Cytotoxicity against mouse L929 cells assessed as cell viability after 72 hrs by MTT assay; format: ADME, cell-based; conditions: L929, 72 h
[11] = tested on: PBMC; test: Cytotoxicity against human PBMC assessed as cell viability after 72 hrs by MTT assay; format: cell-based
[12] = tested on: DU-145; test: Cytotoxicity against human DU145 cells assessed as cell viability after 72 hrs by MTT assay; format: functional, cell-based; conditions: DU-145, 72 h
[13] = tested on: MDA-MB-435; test: Cytotoxicity against human MDA-MB-435 cells assessed as cell viability after 72 hrs by MTT assay; format: functional, cell-based; conditions: MDA-MB-435, 72 h
[14] = tested on: SF-295; test: Cytotoxicity against human SF295 cells assessed as cell viability after 72 hrs by MTT assay; format: functional, cell-based; conditions: SF-295, 72 h

Row | Structure (SMILES) | IC50 [1] | IC50 [2] | IC50 [3] | IC50 [4] | IC50 [5] | IC50 [6] | IC50 [7] | IC50 [8] | IC50 [9] | IC50 [10] | IC50 [11] | IC50 [12] | IC50 [13] | IC50 [14]
1 | O=C1C(Br)=C(NCc2cn(CCCN3C(=O)c4ccccc4C3=O)nn2)C(=O)c2ccccc21 | > 9 µM | > 9 µM | > 9 µM | > 9 µM | > 9 µM | > 9 µM | > 9 µM | > 9 µM | > 9 µM | > 9 µM | > 9 µM | > 9 µM | > 9 µM | > 9 µM
2 | O=C1C=C(NCc2cn(-c3cccc([N+](=O)[O-])c3)nn2)C(=O)c2ccccc21 | > 13 µM | > 13 µM | > 13 µM | > 13 µM | > 13 µM | > 13 µM | > 13 µM | > 13 µM | > 13 µM | > 13 µM | > 13 µM | > 13 µM | > 13 µM | > 13 µM
3 | O=C1C(Br)=C(NCc2cn(-c3cccc([N+](=O)[O-])c3)nn2)C(=O)c2ccccc21 | > 11 µM | > 11 µM | > 11 µM | > 11 µM | > 11 µM | > 11 µM | > 11 µM | > 11 µM | > 11 µM | > 11 µM | > 11 µM | > 11 µM | > 11 µM | > 11 µM
4 | CC1(C)CC(Nc2cccc(F)c2)C2=C(O1)C(=O)c1ccccc1C2=O (stereo not given) | – | – | 7.77 µM | – | 6.92 µM | 7.68 µM | 7.11 µM | 2.68 µM | – | 3.24 µM | 4.44 µM | 8.76 µM | – | –
5 | CC1(C)CC(Nc2cccc([N+](=O)[O-])c2)C2=C(O1)C(=O)c1ccccc1C2=O (stereo not given) | 8.48 µM | – | – | 1.51 µM | – | – | – | 3.86 µM | 6.42 µM | 4.62 µM | 4.84 µM | – | 1.45 µM | 1.51 µM
6 | CC1(C)CC(Nc2cccc(Br)c2)C2=C(O1)C(=O)c1ccccc1C2=O (stereo not given) | > 12 µM | 10.4 µM | 9.87 µM | 7.66 µM | 9.99 µM | 11.5 µM | 8.66 µM | 3.2 µM | > 12 µM | 3.81 µM | 5 µM | 10.5 µM | 9.6 µM | 8.76 µM
7 | CC1(C)CC(Sc2ccccc2)C2=C(O1)C(=O)c1ccccc1C2=O (stereo not given) | > 14 µM | > 14 µM | > 14 µM | 2.91 µM | 13.3 µM | 4.61 µM | 11.8 µM | > 14 µM | > 14 µM | > 14 µM | > 14 µM | > 14 µM | – | > 14 µM
8 | CC1(C)OC2=C(C(=O)c3ccccc3C2=O)C1Sc1ccccc1 (stereo not given) | 3.29 µM | 6.09 µM | 6.09 µM | 0.47 µM | 7.43 µM | 3.26 µM | 6.45 µM | > 14.8 µM | 2.25 µM | 13.8 µM | > 14.8 µM | 6.98 µM | – | 9.15 µM
9 | CC(=O)OC[C@H]1OC(n2cc(CNC3=C(Br)C(=O)c4ccccc4C3=O)nn2)[C@H](OC(C)=O)[C@@H](OC(C)=O)[C@@H]1OC(C)=O (stereo not given in full) | 4.39 µM | 2.8 µM | > 7 µM | 1.19 µM | 2.91 µM | 3.68 µM | 3.59 µM | 3.59 µM | 2.2 µM | 3.66 µM | 4.76 µM | 4.07 µM | 2.67 µM | 2.83 µM
10 | O=C1C=C(NCc2cn(C3=CC(=O)c4ccccc4C3=O)nn2)C(=O)c2ccccc21 | > 12 µM | 2.86 µM | 5.02 µM | 0.8 µM | 3.67 µM | 5.68 µM | 3.7 µM | 6.21 µM | 2.7 µM | 5.21 µM | 6.77 µM | 5.34 µM | 3.09 µM | 3.82 µM
11 | O=C1C=C(n2cc(CNC3=C(Cl)C(=O)c4ccccc4C3=O)nn2)C(=O)c2ccccc21 | 6.65 µM | 6.02 µM | 5.42 µM | 3.42 µM | 7.76 µM | 4.68 µM | 4.02 µM | 7.1 µM | 7.08 µM | 6.83 µM | 10.2 µM | 4.92 µM | 3.33 µM | 5.55 µM
12 | O=C1C=C(n2cc(CNC3=C(Br)C(=O)c4ccccc4C3=O)nn2)C(=O)c2ccccc21 | > 10 µM | > 10 µM | > 10 µM | > 10 µM | > 10 µM | > 10 µM | > 10 µM | > 10 µM | > 10 µM | > 10 µM | > 10 µM | > 10 µM | > 10 µM | > 10 µM
13 | CC1(C)CC(Nc2ccc([N+](=O)[O-])cc2)C2=C(O1)C(=O)c1ccccc1C2=O (stereo not given) | 5.66 µM | 6.66 µM | 5.79 µM | 4.26 µM | 7.16 µM | 5.95 µM | 5.52 µM | 1.61 µM | 4.97 µM | 1.37 µM | 2.01 µM | 6.13 µM | 5.42 µM | 5.95 µM
14 | CC1(C)CC(Nc2ccc(Br)cc2)C2=C(O1)C(=O)c1ccccc1C2=O (stereo not given) | 5.84 µM | 5.53 µM | 5.41 µM | 4.73 µM | 4.97 µM | 6.4 µM | 6.33 µM | 2.55 µM | 5.31 µM | 2.38 µM | 2.89 µM | 6.72 µM | 5.24 µM | 6.38 µM
15 | CC1(C)CC(Nc2ccc(I)cc2)C2=C(O1)C(=O)c1ccccc1C2=O (stereo not given) | > 10 µM | > 10 µM | 9.06 µM | 6.88 µM | 7.53 µM | 9.17 µM | 10.7 µM | 2.55 µM | > 10 µM | 2.31 µM | 3.22 µM | 10.8 µM | 9.01 µM | 9.19 µM
16 | CC1(C)CC(Nc2ccc(Cl)cc2)C2=C(O1)C(=O)c1ccccc1C2=O (stereo not given) | 0.54 µM | 1.47 µM | 1 µM | 0.98 µM | 0.98 µM | 0.6 µM | 0.76 µM | 1.5 µM | 0.65 µM | 1.85 µM | 0.52 µM | 1.17 µM | 1 µM | 0.71 µM
17 | COc1ccc(NC2CC(C)(C)OC3=C2C(=O)c2ccccc2C3=O)cc1 (stereo not given) | 0.33 µM | 0.44 µM | 0.55 µM | 0.19 µM | 1.02 µM | 0.69 µM | 0.52 µM | 0.96 µM | 0.47 µM | 0.74 µM | 1.76 µM | 0.88 µM | 0.58 µM | 0.74 µM
18 | COc1cccc2c1C(=O)c1c(O)c3c(c(O)c1C2=O)C[C@@](O)(C(=O)CO)C[C@@H]3O[C@H]1C[C@H](N)[C@H](O)[C@H](C)O1 [DOXORUBICIN] | – | 0.35 µM | – | – | – | 0.37 µM | 0.5 µM | 0.24 µM | 0.13 µM | – | – | 0.53 µM | – | –
